According to patent US20240277606A1, “METHODS FOR THE PULSED DELIVERY OF BIOACTIVE AGENTS” (University of Mississippi, priority 2021, published 2024):

Legend:
5HT2A receptor = biological target: T1, 5HT2A receptor (Homo sapiens, UniProt P28223); test: In vitro bioactivity: calcium flux (Fluo-8) in 5HT2A serotonin receptor cells; assay type: cell-based; conditions: 5 μM, 1 hr treatment, versus PBS control
T1 construct: host or cells: Chem-1 cells (parental control HTSCHEM-1RTA)
Protocol: Briefly, 5HT2A serotonin receptor cells (Millipore Sigma, HTS082RTA) and chem-1 parental control cells (Millipore Sigma, HTSCHEM-1RTA) were seeded in 96 well plates (5000 cells-100 μl/well of 50,000 cells/ml solution) and allowed to adhere overnight. […] After 1 hr, Fluo-8 green dye solution (Abcam, ab112129) was added to the cells, incubated 30 min at 37° C., and then incubated for 30 minutes at room temperature, followed by fluorescence measurements on a microplate reader.

[1] = In vitro release from single-layered CAPP films; assay type: physicochemical; conditions: for release rate compared with Rhodamine dye: from 0.1 mm thick CAPP films
Protocol: Next, drug release from single-layered CAPP films of 0.1, 0.2, 0.3, and 0.4 mm thickness was quantified. Drug release was measured by encapsulating Rhodamine fluorescent dye within the films and closely matched the erosion times reported above. Complete release from 0.1 mm thick films occurred after ˜18 hrs (FIG. 4A). Complete release from 0.2 mm thick films occurred after ˜36 hrs (FIG. 4A). Complete release from 0.3 mm thick films occurred after ˜60 hrs (FIG. 4A). Complete release from 0.4 mm thick films occurred after ˜78 hrs (FIG. 4A). Importantly, release of 5HT2A agonists from 0.1 mm thick CAPP films was also measured, since 0.1 mm thick films are used to encapsulate drug in the multilayered films.

[2] = Pilot pharmacokinetics of DOI from subcutaneously implanted 0.1 mm CAPP films; assay type: in vivo; conditions: DOI-loaded 0.1 mm CAPP film, subcutaneous, CD-1 mice
From the text: Single-layered films loaded with DOI and blank single-layered films have been constructed. These films were sterilized and implanted subcutaneously in the dorsal flap of CD-1 mice in an initial pilot experiment. This pilot experiment enabled optimization of blood collection time points, ensure the ability to detect DOI with current bioanalytical techniques, and will inform the design of the rest of the in vivo studies. Briefly, films were implanted subcutaneously followed by blood and organ collection at 8, 16, and 24 hrs to monitor blood pharmacokinetics of DOI released from the 0.1 mm thick CAPP films in vivo. […] The concentration of DOI in the blood of mice returned to baseline by 16 hrs and remained at baseline through 24 hrs. […] This pilot experiment was repeated to: 1) sample at earlier time points for better overall fidelity and 2) to also determine the concentration of DOI in major organs, particularly the brain. […] As expected based on the plasma pharmacokinetics, it was observed that the peak concentration of DOI in the brain, liver, and kidneys was ˜2-4 hrs (FIGS. 13C-13F). […] The release profile of the same dose of DOI from 0.4 mm thick films can also be measured, as can the release profile of DOI from multilayered CAPP films with three DOI-loaded 0.1 mm thick films separated by 0.4 mm thick blank films.

[3] = Pulsed delivery of DOI from subcutaneously implanted multilayer CAPP films coated with PSA; assay type: in vivo; conditions: seven-layer CAPP film, subcutaneous
From the text: The multilayered CAPP films used for this study had seven layers, where layers 1, 4, and 7 were DOI-loaded 0.1 mm thick CAPP films at 70:30 CAP:P ratio and layers 2, 3, 5, and 6 were unloaded (Blank) 0.4 mm thick CAPP films at 90:10 CAP:P ratio. The layered devices were then coated on all sides but one (the top of layer 1) with the biocompatible polymer polysebacic acid (PSA). After implantation, the anticipated pulsed release schedule of DOI was observed, with three distinct DOI pulses where peak concentrations in the plasma occurred at ˜2, 12, and 24 hrs post-implantation.

[4] = Follow-up plasma and organ pharmacokinetics of DOI from subcutaneously implanted 0.1 mm CAPP films; assay type: in vivo, CD-1 mice; conditions: post-implantation of 0.1 mm thick CAPP films, subcutaneous
From the text: Single-layered films loaded with DOI and blank single-layered films have been constructed. These films were sterilized and implanted subcutaneously in the dorsal flap of CD-1 mice in an initial pilot experiment. This pilot experiment enabled optimization of blood collection time points, ensure the ability to detect DOI with current bioanalytical techniques, and will inform the design of the rest of the in vivo studies. Briefly, films were implanted subcutaneously followed by blood and organ collection at 8, 16, and 24 hrs to monitor blood pharmacokinetics of DOI released from the 0.1 mm thick CAPP films in vivo. […] The concentration of DOI in the blood of mice returned to baseline by 16 hrs and remained at baseline through 24 hrs. […] This pilot experiment was repeated to: 1) sample at earlier time points for better overall fidelity and 2) to also determine the concentration of DOI in major organs, particularly the brain. […] As expected based on the plasma pharmacokinetics, it was observed that the peak concentration of DOI in the brain, liver, and kidneys was ˜2-4 hrs (FIGS. 13C-13F). DOI was cleared from the plasma as well as the brain, liver, and kidneys by ˜12 hrs post-implantation. The release profile of the same dose of DOI from 0.4 mm thick films can also be measured, as can the release profile of DOI from multilayered CAPP films with three DOI-loaded 0.1 mm thick films separated by 0.4 mm thick blank films.

[5] = In vitro release kinetics from multilayered CAPP films (Rhodamine as model drug); assay type: physicochemical
From the text: The layering strategy (i.e., alternating 0.1 mm and 0.4 mm films) was chosen based on the results in FIGS. 4A-4B showing that 0.1 mm films erode in ˜24 hrs while 0.4 mm films erode in ˜70-80 hrs. Additionally, each layer was engineered to degrade by either bulk or surface erosion based on the function of that particular layer. The drug-loaded, 0.1 mm thick layers should degrade via bulk erosion such that the drug is rapidly released from these layers in a bolus. However, the “blank” 0.4 mm layers should erode via surface erosion to ensure gradual degradation of the blank layer from “top-to-bottom” to maintain ordered pulses of release over time. Therefore, the absorption of water into polymeric films composed of a range of CAP:P ratios was examined, since bulk erosion occurs in materials where the rate of water absorption is greater than the degradation rate. By contrast, surface erosion occurs in materials where the rate of degradation is greater than the rate of water absorption into the material. […] Therefore, multilayered films with 0.1 mm drug-loaded layers composed of 70:30 (bulk-eroding) CAPP films and 0.4 mm blank layers composed of 90:10 (surface eroding) CAPP films were produced. Lastly, the erosion time for CAPP films of CAP:P ratios varying from 70:30-90:10 was examined to inform the construction of multilayer devices that are to be composed of both 70:30 and 90:10 CAPP films. […] As film thickness increases, erosion time of the films increases proportionally.
We constructed multilayer CAPP films of alternating 0.1 mm bulk eroding, drug-loaded layers and 0.4 mm surface eroding, blank layers and observed drug release kinetics from these films using Rhodamine as a model drug. […] However, in these preliminary results the third drug pulse is not obvious and the gaps between pulses have some variability. A new layering design was implemented to counter these shortcomings; including adding two “blank” layers between each drug-loaded film, as well as having “blank” layers on the bottom of the device to maintain device structure through the third drug pulse.

[6] = multilayer film, alternating 0.1 mm drug-loaded and 0.4 mm blank layers

T1 sequence (P28223 whole entry): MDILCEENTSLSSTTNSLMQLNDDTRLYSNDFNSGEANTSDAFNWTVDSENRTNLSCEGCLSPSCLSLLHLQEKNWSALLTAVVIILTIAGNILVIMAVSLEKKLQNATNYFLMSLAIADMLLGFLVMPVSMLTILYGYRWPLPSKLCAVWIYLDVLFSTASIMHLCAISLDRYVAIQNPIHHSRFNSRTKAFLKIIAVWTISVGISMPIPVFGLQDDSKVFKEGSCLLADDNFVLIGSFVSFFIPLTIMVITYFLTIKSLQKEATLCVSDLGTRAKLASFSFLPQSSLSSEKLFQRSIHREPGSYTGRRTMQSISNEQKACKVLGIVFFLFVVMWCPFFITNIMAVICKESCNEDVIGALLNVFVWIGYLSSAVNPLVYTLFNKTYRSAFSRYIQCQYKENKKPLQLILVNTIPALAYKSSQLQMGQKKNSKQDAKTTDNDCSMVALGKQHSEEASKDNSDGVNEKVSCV

Q: Which “calcium flux downstream of 5HT2A receptor activation” value (5HT2A receptor) does the source give for CCN(CC)C(=O)[C@@H]1C=C2c3cccc4c3c(cn4C(=O)C3CC3)C[C@H]2N(C)C1 [1cp-LSD, N1-(cyclopropylmethanoyl)-lysergic acid diethylamide] here?
A: The value was “significant induction of calcium”.

Q: For CC(=O)Oc1cccc2[nH]cc(CCN(C)C)c12 [4-acetoxy DMT, O-acetylpsilocin], which “release rate compared with Rhodamine dye” value [1] is on record?
A: The value was “very similar rate”.

Q: For COc1cc(CC(C)N)c(OC)cc1I (stereo not drawn) [DOI, 2,5-dimethoxy-4-iodoamphetamine], which “calcium flux downstream of 5HT2A receptor activation” value (5HT2A receptor) is on record?
A: The value was “significant induction of calcium”.

Q: And the detection in blood ([2]; 8 hrs post-implantation)?
A: The detection in blood was “consistently detected”.

Q: What about the “time at which blood concentration returned to baseline” value ([2]; remained at baseline through 24 hrs) of the same compound?
A: Its value is at most 16 h.

Q: What about the “release rate compared with Rhodamine dye” value [1] of the same compound?
A: Its value is “very similar rate”.

Q: And the “concentration profile in brain, liver, and kidneys” value [3]?
A: The value was “matched the pulsed profile of the blood plasma”.

Q: What about the “time of peak plasma concentration, first pulse” value ([3]; post-implantation) of the same compound?
A: The value was about 2 h.

Q: What about the “time of peak plasma concentration, second pulse” value ([3]; post-implantation) of the same compound?
A: The value was about 12 h.

Q: And the “time of peak plasma concentration, third pulse” value ([3]; post-implantation)?
A: The value was about 24 h.

Q: What about the “time by which cleared from plasma, brain, liver, and kidneys” value [4] of the same compound?
A: The value was about 12 h.

Q: What about the “time of peak concentration in brain, liver, and kidneys” value [4] of the same compound?
A: The value was 2 to 4 h.

Q: What about the “time of peak concentration in plasma” value [4] of the same compound?
A: The value was 2 h.

Q: Which “time of peak of first drug pulse” value [5, 6] does the source give for CCN(CC)c1ccc2c(-c3ccccc3C(=O)O)c3ccc(=[N+](CC)CC)cc-3oc2c1 [Rhodamine, rhodamine B] here?
A: The value was 16 h.

Q: What about the “time of peak of second drug pulse” value [5, 6] of the same compound?
A: Its value is 72 h.

Q: What about the “time of peak of third drug pulse” value [5, 6] of the same compound?
A: The value was about 120 h.

Q: And the “spacing between three intermittent drug pulses” value ([5]; second generation design, two blank layers between drug-loaded films and blank layers at bottom)?
A: Its value is about 70 h.

Q: And the “time to complete release” value ([1]; from 0.1 mm thick single-layered CAPP film)?
A: The value was about 18 h.

Q: What about the “time to complete release” value ([1]; from 0.2 mm thick single-layered CAPP film) of the same compound?
A: Its value is about 36 h.

Q: And the “time to complete release” value ([1]; from 0.3 mm thick single-layered CAPP film)?
A: Its value is about 60 h.

Q: What about the “time to complete release” value ([1]; from 0.4 mm thick single-layered CAPP film) of the same compound?
A: The value was about 78 h.
